According to patent US10138207B2, “Benzomorphan analogs and the use thereof” (priority 2012, dated 2018):
Like-named read-outs stand apart in the source and are kept apart here.

Columns and labels:
μ-opioid receptor = μ-opioid receptor (Homo sapiens, UniProt P35372); test: μ-opioid receptor [35S]GTPγS functional assay, U-2 OS cells; assay type: biochemical; design: expressed in transfected cells; host or cells: U-2 OS; conditions: for Emax / GTPγS μ Emax: relative to DAMGO
κ opioid receptor = κ opioid receptor (Homo sapiens, UniProt P41145); test: κ-opioid receptor [35S]GTPγS functional assay, U-2 OS cells; assay type: biochemical; design: expressed in transfected cells; host or cells: U-2 OS (in-house membranes); conditions: for Emax: read-out: GTPγS κ Emax
[1] = U-2 OS cells, read-out: GTPγS μ EC50
[2] = U-2 OS cells, read-out: GTPγS μ Emax
[3] = U-2 OS cells, bound in μM, read-out: GTPγS κ EC50
[4] = U-2 OS cells, relative to U69,593
[5] = GTPγS μ EC50, U-2 OS cells, bound in μM
[6] = read-out: GTPγS μ Emax, U-2 OS cells
[7] = U-2 OS cells, read-out: GTPγS κ EC50

μ-opioid receptor, sequence (P35372 whole entry, species assumed): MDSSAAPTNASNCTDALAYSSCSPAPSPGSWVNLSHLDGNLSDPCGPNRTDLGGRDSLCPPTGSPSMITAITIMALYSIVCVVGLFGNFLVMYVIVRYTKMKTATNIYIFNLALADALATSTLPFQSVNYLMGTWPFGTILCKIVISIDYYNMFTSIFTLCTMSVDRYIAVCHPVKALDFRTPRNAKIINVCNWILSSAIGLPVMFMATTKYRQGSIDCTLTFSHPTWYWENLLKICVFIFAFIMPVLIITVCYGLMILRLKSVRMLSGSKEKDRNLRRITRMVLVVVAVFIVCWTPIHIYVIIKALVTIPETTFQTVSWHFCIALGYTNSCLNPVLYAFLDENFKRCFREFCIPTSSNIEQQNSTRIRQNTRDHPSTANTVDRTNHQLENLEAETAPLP
κ opioid receptor, sequence (P41145 whole entry): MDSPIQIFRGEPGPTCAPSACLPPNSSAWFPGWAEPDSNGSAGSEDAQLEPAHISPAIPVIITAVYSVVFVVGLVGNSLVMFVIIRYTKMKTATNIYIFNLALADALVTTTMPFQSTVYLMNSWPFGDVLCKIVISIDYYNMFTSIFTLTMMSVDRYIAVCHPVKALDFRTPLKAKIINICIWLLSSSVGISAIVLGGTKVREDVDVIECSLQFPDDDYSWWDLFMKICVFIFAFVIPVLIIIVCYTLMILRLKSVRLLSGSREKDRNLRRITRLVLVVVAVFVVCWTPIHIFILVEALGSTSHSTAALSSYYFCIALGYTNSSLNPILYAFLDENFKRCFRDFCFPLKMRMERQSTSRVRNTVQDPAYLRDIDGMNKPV

Row | Compound | EC50 (μ-opioid receptor; [1]) | Emax (μ-opioid receptor; [2]) | EC50 (κ opioid receptor; [3]) | Emax (κ opioid receptor; [4]) | EC50 (μ-opioid receptor; [5]) | Emax (μ-opioid receptor; [6]) | EC50 (κ opioid receptor) | Emax (κ opioid receptor) | GTPγS μ Emax (μ-opioid receptor; U-2 OS cells) | EC50 (κ opioid receptor; [7])
1 | CN1CC[C@@]2(C)c3cc(O)ccc3C[C@@H]1[C@H]2NCCc1ccc(C(C)(C)C)cc1 [Compound 105, (2R,6S,11S)-11-((4-(tert-butyl)phenethyl)amino)-3,6-dimethyl-1,2,3,4,5,6-hexahydro-2,6-methanobenzo[d]azocin-8-ol] | 0.00022 ± 5.2e-05 µM | 32.7 ± 1.76% | > 20000 nM | 1% |  |  |  |  |  | 
2 | CN1CC[C@@]2(C)c3cc(O)ccc3C[C@@H]1[C@H]2NCC1CCN(C(=O)OC(C)(C)C)CC1 [Compound 106, tert-butyl 4-((((2R,6S,11S)-8-hydroxy-3,6-dimethyl-1,2,3,4,5,6-hexahydro-2,6-methanobenzo[d]azocin-11-yl)amino)methyl)piperidine-1-carboxylate] |  |  |  |  | > 20 µM | 2.5% | > 20000 nM | 1% |  | 
3 | CN1CC[C@@]2(C)c3cc(O)ccc3C[C@@H]1[C@@H]2NCC1CCN(C(=O)OC(C)(C)C)CC1 [Compound 107, tert-butyl 4-((((2R,6S,11R)-8-hydroxy-3,6-dimethyl-1,2,3,4,5,6-hexahydro-2,6-methanobenzo[d]azocin-11-yl)amino)methyl)piperidine-1-carboxylate] | 0.0462 ± 0.00035 µM |  | > 20000 nM | 1% |  |  |  |  | 58.30 ± 0.33% | 
4 | CN1CC[C@@]2(C)c3cc(O)ccc3C[C@@H]1[C@@H]2N(C)CC1CCN(C(=O)OC(C)(C)C)CC1 [Compound 108, tert-butyl 4-((((2R,6S,11R)-8-hydroxy-3,6-dimethyl-1,2,3,4,5,6-hexahydro-2,6-methanobenzo[d]azocin-11-yl)(methyl)amino)methyl)piperidine-1-carboxylate] | 0.00039 ± 0.00011 µM |  |  | 18.8 ± 1.25% |  |  |  |  | 80.80 ± 2.50% | 3.27 ± 0.69 nM
5 | CN1CC[C@@]2(C)c3cc(O)ccc3C[C@@H]1[C@H]2N(C)CCc1ccc(S(N)(=O)=O)cc1 [Compound 109, 4-(2-(((2R,6S,11S)-8-hydroxy-3,6-dimethyl-1,2,3,4,5,6-hexahydro-2,6-methanobenzo[d]azocin-11-yl)(methyl)amino)ethyl)benzenesulfonamide] | 0.029 ± 0.00136 µM | 100 ± 3.18% |  | 36.7 ± 0.67% |  |  |  |  |  | 192 ± 41.6 nM
6 | CN1CC[C@@]2(C)c3cc(O)ccc3C[C@@H]1[C@H]2NCCc1c[nH]c2ccccc12 [Compound 110, (2R,6S,11S)-11-((2-(1H-indol-3-yl)ethyl)amino)-3,6-dimethyl-1,2,3,4,5,6-hexahydro-2,6-methanobenzo[d]azocin-8-ol] | 0.0116 ± 0.00155 µM | 92.3 ± 2.03% |  | 37.7 ± 2.03% |  |  |  |  |  | 25.4 ± 3.38 nM
7 | CN1CC[C@@]2(C)c3cc(O)ccc3C[C@@H]1[C@H]2NCCCNC(=O)OC(C)(C)C [Compound 111, tert-butyl (3-(((2R,6S,11S)-8-hydroxy-3,6-dimethyl-1,2,3,4,5,6-hexahydro-2,6-methanobenzo[d]azocin-11-yl)amino)propyl)carbamate] | 0.00223 ± 0.00012 µM | 64 ± 4% |  | 22.7 ± 2.33% |  |  |  |  |  | 42.6 ± 7.64 nM
8 | CN1CC[C@@]2(C)c3cc(O)ccc3C[C@@H]1[C@H]2NCCNC(=O)OC(C)(C)C [Compound 112, tert-butyl (2-(((2R,6S,11S)-8-hydroxy-3,6-dimethyl-1,2,3,4,5,6-hexahydro-2,6-methanobenzo[d]azocin-11-yl)amino)ethyl)carbamate] | 0.00756 ± 0.00045 µM | 83.7 ± 1.45% |  | 26.3 ± 0.88% |  |  |  |  |  | 23.4 ± 7.81 nM
9 | C[C@]12CCN(CC3CC3)[C@H](Cc3ccc(O)cc31)[C@H]2NC(=O)c1ccsc1 [Compound 113, N-((2R,6S,11S)-3-(cyclopropylmethyl)-8-hydroxy-6-methyl-1,2,3,4,5,6-hexahydro-2,6-methanobenzo[d]azocin-11-yl)thiophene-3-carboxamide] | 0.00045 ± 3.6e-05 µM | 68.7 ± 3.71% |  | 99.2 ± 1.65% |  |  |  |  |  | 0.052 ± 0.013 nM
10 | CN(C(=O)c1ccsc1)[C@@H]1[C@H]2Cc3ccc(O)cc3[C@]1(C)CCN2CC1CC1 [Compound 114, N-((2R,6S,11S)-3-(cyclopropylmethyl)-8-hydroxy-6-methyl-1,2,3,4,5,6-hexahydro-2,6-methanobenzo[d]azocin-11-yl)-N-methylthiophene-3-carboxamide] | 0.152 ± 0.0168 µM | 20.7 ± 0.67% |  | 107 ± 4.36% |  |  |  |  |  | 18.9 ± 2.01 nM
11 | CN(C(=O)c1ccccc1)[C@@H]1[C@H]2Cc3ccc(O)cc3[C@]1(C)CCN2CC1CC1 [Compound 115, N-((2R,6S,11S)-3-(cyclopropylmethyl)-8-hydroxy-6-methyl-1,2,3,4,5,6-hexahydro-2,6-methanobenzo[d]azocin-11-yl)-N-methylbenzamide] | 0.159 ± 0.0154 µM | 37.7 ± 1.67% |  | 76 ± 6.66% |  |  |  |  |  | 53.4 ± 7.28 nM
12 | CC(C)CCC(=O)N(C)[C@H]1[C@H]2Cc3ccc(O)cc3[C@]1(C)CCN2C [Compound 116, N-((2R,6S,11R)-8-hydroxy-3,6-dimethyl-1,2,3,4,5,6-hexahydro-2,6-methanobenzo[d]azocin-11-yl)-N,4-dimethylpentanamide] | 0.00312 ± 0.00015 µM | 104 ± 2.96% |  | 56.3 ± 3.93% |  |  |  |  |  | 69.4 ± 5.37 nM
13 | CN1CC[C@@]2(C)c3cc(O)ccc3C[C@@H]1[C@H]2N(C)C(=O)Cc1ccccc1 [Compound 117, N-((2R,6S,11S)-8-hydroxy-3,6-dimethyl-1,2,3,4,5,6-hexahydro-2,6-methanobenzo[d]azocin-11-yl)-N-methyl-2-phenylacetamide] | 0.822 ± 0.0939 µM | 93.7 ± 5.36% |  | 79.7 ± 5.46% |  |  |  |  |  | 3390 ± 439 nM
14 | CN1CC[C@@]2(C)c3cc(O)ccc3C[C@@H]1[C@@H]2N(C)C(=O)Cc1ccccc1 [Compound 118, N-((2R,6S,11R)-8-hydroxy-3,6-dimethyl-1,2,3,4,5,6-hexahydro-2,6-methanobenzo[d]azocin-11-yl)-N-methyl-2-phenylacetamide] | 0.00132 ± 4e-05 µM | 101 ± 2.52% |  | 75.2 ± 4.33% |  |  |  |  |  | 90.8 ± 7.63 nM
15 | CN1CC[C@@]2(C)c3cc(O)ccc3C[C@@H]1[C@@H]2N(C)C(=O)c1ccccc1 [Compound 119, N-((2R,6S,11R)-8-hydroxy-3,6-dimethyl-1,2,3,4,5,6-hexahydro-2,6-methanobenzo[d]azocin-11-yl)-N-methylbenzamide] | 0.0322 ± 0.00326 µM | 100 ± 2.73% |  | 96.7 ± 5.36% |  |  |  |  |  | 383 ± 21.9 nM
16 | CN1CC[C@@]2(C)c3cc(O)ccc3C[C@@H]1[C@H]2N(C)C(=O)C1CCCCC1 [Compound 120, N-((2R,6S,11S)-8-hydroxy-3,6-dimethyl-1,2,3,4,5,6-hexahydro-2,6-methanobenzo[d]azocin-11-yl)-N-methylcyclohexanecarboxamide] | 2.94 ± 0.481 µM | 76.3 ± 3.48% |  | 62.3 ± 4.91% |  |  |  |  |  | 2860 ± 231 nM
17 | CN1CC[C@@]2(C)c3cc(O)ccc3C[C@@H]1[C@@H]2N(C)C(=O)C1CCCCC1 [Compound 121, N-((2R,6S,11R)-8-hydroxy-3,6-dimethyl-1,2,3,4,5,6-hexahydro-2,6-methanobenzo[d]azocin-11-yl)-N-methylcyclohexanecarboxamide] | 0.126 ± 0.0154 µM | 91.7 ± 4.18% |  | 18.3 ± 0.88% |  |  |  |  |  | 604 ± 68.1 nM
18 | CN1CC[C@@]2(C)c3cc(O)ccc3C[C@@H]1[C@@H]2N(C)C(=O)/C=C/c1cccnc1 [Compound 122, (E)-N-((2R,6S,11R)-8-hydroxy-3,6-dimethyl-1,2,3,4,5,6-hexahydro-2,6-methanobenzo[d]azocin-11-yl)-N-methyl-3-(pyridin-3-yl)acrylamide] | 0.00036 ± 1e-05 µM | 102 ± 1.2% |  | 94.5 ± 0.65% |  |  |  |  |  | 15.2 ± 2.63 nM
19 | CN1CC[C@@]2(C)c3cc(O)ccc3C[C@@H]1[C@@H]2N(C)C(=O)Cc1ccsc1 [Compound 123, N-((2R,6S,11R)-8-hydroxy-3,6-dimethyl-1,2,3,4,5,6-hexahydro-2,6-methanobenzo[d]azocin-11-yl)-N-methyl-2-(thiophen-3-yl)acetamide] |  |  |  |  |  | 104 ± 3.06% | 113 ± 5.8 nM | 74 ± 3.06% |  | 
20 | CN1CC[C@@]2(C)c3cc(O)ccc3C[C@@H]1[C@@H]2N(C)C(=O)c1ccsc1 [Compound 124, N-((2R,6S,11R)-8-hydroxy-3,6-dimethyl-1,2,3,4,5,6-hexahydro-2,6-methanobenzo[d]azocin-11-yl)-N-methylthiophene-3-carboxamide] | 0.0141 ± 0.00048 µM | 98 ± 3.06% |  | 77.3 ± 4.63% |  |  |  |  |  | 680 ± 67.7 nM
21 | CN1CC[C@@]2(C)c3cc(O)ccc3C[C@@H]1[C@H]2N(C)C(=O)c1ccsc1 [Compound 125, N-((2R,6S,11S)-8-hydroxy-3,6-dimethyl-1,2,3,4,5,6-hexahydro-2,6-methanobenzo[d]azocin-11-yl)-N-methylthiophene-3-carboxamide] | 2.62 ± 0.396 µM | 70.7 ± 2.33% |  | 102 ± 5.69% |  |  |  |  |  | 443 ± 73.2 nM
22 | CN1CC[C@@]2(C)c3cc(O)ccc3C[C@@H]1[C@H]2N(C)C(=O)c1ccc(C(F)(F)F)cn1 [Compound 126, N-((2R,6S,11S)-8-hydroxy-3,6-dimethyl-1,2,3,4,5,6-hexahydro-2,6-methanobenzo[d]azocin-11-yl)-N-methyl-5-(trifluoromethyl)picolinamide] | 0.147 ± 0.00947 µM | 103 ± 2.4% |  | 63.7 ± 3.93% |  |  |  |  |  | 1470 ± 91.3 nM
23 | C[C@]12CCN(CC3CC3)[C@H](Cc3ccc(O)cc31)[C@@H]2NC(=O)c1ccsc1 [Compound 127, N-((2R,6S,11R)-3-(cyclopropylmethyl)-8-hydroxy-6-methyl-1,2,3,4,5,6-hexahydro-2,6-methanobenzo[d]azocin-11-yl)thiophene-3-carboxamide] |  |  |  |  | > 20 µM | 3.67 ± 1.2% | 947 ± 68 nM | 93 ± 3.51% |  | 
